# Test results published in patent publication US11242343B2 (Incyte Corporation, priority 2016, dated 2022).
# Biological target: HPK1 (Homo sapiens, UniProt Q92918)
# Assay: HPK1 Kinase Binding Assay
# Settings: LanthaScreen tracer 222 binding, one hour incubation at 25° C.
# Experimental: Example A. HPK1 Kinase Binding Assay
# A stock solution of 1 mM test compound was prepared in DMSO. The compound plate was prepared by 3-fold and 11-point serial dilutions. 0.1 μL of the compound in DMSO was transferred from the compound plate to the white 384 well polystyrene plates. The assay buffer contained 50 mM HEPES, pH 7.5, 0.01% Tween-20, 5 mM MgCl2, 0.01% BSA, and 5 mM DTT. 5 μl of 4 nM active HPK1 (SignalChem M23-11G) prepared in the buffer was added to the plate. The enzyme concentration given was based on the given stock concentration reported by the vender. 5 μl of 18 nM tracer 222 (ThermoFisher PV6121) and 4 nM LanthaScreen Eu-Anti GST antibody (ThermoFisher PV5595) were added. After one hour incubation at 25° C., the plates were read on a PHERAstar FS plate reader (BMG Labtech). Ki values were determined.
# HPK1, sequence (Q92918 whole entry, looked up): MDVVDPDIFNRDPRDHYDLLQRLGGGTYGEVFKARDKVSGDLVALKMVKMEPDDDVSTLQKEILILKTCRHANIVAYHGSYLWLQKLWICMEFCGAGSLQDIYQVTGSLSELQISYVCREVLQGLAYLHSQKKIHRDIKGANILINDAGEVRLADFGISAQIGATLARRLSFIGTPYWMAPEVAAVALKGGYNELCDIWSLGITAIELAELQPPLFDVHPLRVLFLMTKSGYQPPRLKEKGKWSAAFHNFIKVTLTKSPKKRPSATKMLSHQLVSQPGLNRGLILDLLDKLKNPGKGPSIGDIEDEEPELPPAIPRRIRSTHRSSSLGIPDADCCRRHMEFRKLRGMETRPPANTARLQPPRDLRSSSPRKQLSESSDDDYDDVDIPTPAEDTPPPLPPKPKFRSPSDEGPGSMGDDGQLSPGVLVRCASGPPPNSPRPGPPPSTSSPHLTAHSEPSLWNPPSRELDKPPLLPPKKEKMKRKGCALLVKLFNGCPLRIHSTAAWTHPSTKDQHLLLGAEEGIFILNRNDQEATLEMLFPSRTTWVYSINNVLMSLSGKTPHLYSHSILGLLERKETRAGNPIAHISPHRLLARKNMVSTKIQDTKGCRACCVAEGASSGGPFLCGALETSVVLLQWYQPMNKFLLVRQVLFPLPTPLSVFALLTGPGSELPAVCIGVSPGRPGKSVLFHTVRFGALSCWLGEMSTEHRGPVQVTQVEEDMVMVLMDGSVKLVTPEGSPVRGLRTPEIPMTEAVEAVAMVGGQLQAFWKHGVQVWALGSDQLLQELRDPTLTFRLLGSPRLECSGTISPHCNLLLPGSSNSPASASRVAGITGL
row,SMILES,Ki [nM]
1,"CN1CCN(c2ccc(-c3n[nH]c4ccc(-c5cnc6nccnc6c5)nc34)cc2)CC1 [Example 32, 7-(3-(4-(4-methylpiperazin-1-yl)phenyl)-1H-pyrazolo[4,3-b]pyridin-5-yl)pyrido[3,2-b]pyrazine]",≤ 100
2,"CN1CCN(c2ccc(-c3n[nH]c4ccc(-c5cncc6oc(C(C)(C)C)nc56)nc34)cc2)CC1 [Example 33, 2-tert-Butyl-7-(3-(4-(4-methylpiperazin-1-yl)phenyl)-1H-pyrazolo[4,3-b]pyridin-5-yl)oxazolo[5,4-c]pyridine]",≤ 100
3,"Cc1n[nH]cc1-c1ccc2[nH]nc(-c3ccc(N4CCN(C)CC4)cc3)c2n1 [Example 34, 5-(3-Methyl-1H-pyrazol-4-yl)-3-(4-(4-methylpiperazin-1-yl)phenyl)-1H-pyrazolo[4,3-b]pyridine]",≤ 100
4,"CN1CCN(c2ccc(-c3n[nH]c4ccc(-c5cnn6ccccc56)nc34)cc2)CC1 [Example 35, 3-(4-(4-Methylpiperazin-1-yl)phenyl)-5-(pyrazolo[1,5-a]pyridin-3-yl)-1H-pyrazolo[4,3-b]pyridine]",≤ 100
5,"CN1CCN(c2ccc(-c3n[nH]c4ccc(-c5cncc6ccccc56)nc34)cc2)CC1 [Example 37, 4-(3-(4-(4-Methylpiperazin-1-yl)phenyl)-1H-pyrazolo[4,3-b]pyridin-5-yl)isoquinoline]",≤ 100
6,"CN1CCN(c2ccc(-c3n[nH]c4ccc(-c5cccc(C(N)=O)c5F)nc34)cc2)CC1 [Example 40, 2-Fluoro-3-(3-(4-(4-methylpiperazin-1-yl)phenyl)-1H-pyrazolo[4,3-b]pyridin-5-yl)benzamide]",≤ 100
7,"CNC(=O)c1cccc(-c2ccc3[nH]nc(-c4ccc(N5CCN(C)CC5)cc4)c3n2)c1F [Example 41, 2-Fluoro-N-methyl-3-(3-(4-(4-methylpiperazin-1-yl)phenyl)-1H-pyrazolo[4,3-b]pyridin-5-yl)benzamide]",≤ 100
8,"CN1CCN(c2ccc(-c3n[nH]c4ccc(-c5cccc(C(=O)NCc6ccccc6)c5F)nc34)cc2)CC1 [Example 42, N-Benzyl-2-fluoro-3-(3-(4-(4-methylpiperazin-1-yl)phenyl)-1H-pyrazolo[4,3-b]pyridin-5-yl)benzamide]",≤ 100
9,"CN1CCN(c2ccc(-c3n[nH]c4ccc(-c5cccc(C(=O)NCc6ccncc6)c5F)nc34)cc2)CC1 [Example 43, 2-Fluoro-3-(3-(4-(4-methylpiperazin-1-yl)phenyl)-1H-pyrazolo[4,3-b]pyridin-5-yl)-N-(pyridin-4-ylmethyl)benzamide]",≤ 100
10,"CN1CCN(c2ccc(-c3n[nH]c4ccc(-c5cccn6ccnc56)nc34)cc2)CC1 [Example 44, 5-(Imidazo[1,2-a]pyridin-8-yl)-3-(4-(4-methylpiperazin-1-yl)phenyl)-1H-pyrazolo[4,3-b]pyridine]",≤ 100
11,"CN1CCN(c2ccc(-c3n[nH]c4ccc(-c5cccc6c5CCNC6)nc34)cc2)CC1 [Example 46, 5-(3-(4-(4-Methylpiperazin-1-yl)phenyl)-1H-pyrazolo[4,3-b]pyridin-5-yl)-1,2,3,4-tetrahydroisoquinoline]",≤ 100
12,"CN1CCN(c2ccc(-c3n[nH]c4ccc(-c5cccc6c5CCC6N)nc34)cc2)CC1 (stereo not drawn) [Example 47, 4-(3-(4-(4-Methylpiperazin-1-yl)phenyl)-1H-pyrazolo[4,3-b]pyridin-5-yl)-2,3-dihydro-1H-inden-1-amine]",≤ 100
13,"CNC1CCc2c(-c3ccc4[nH]nc(-c5ccc(N6CCN(C)CC6)cc5)c4n3)cccc21 (stereo not drawn) [Example 48, N-Methyl-4-(3-(4-(4-methylpiperazin-1-yl)phenyl)-1H-pyrazolo[4,3-b]pyridin-5-yl)-2,3-dihydro-1H-inden-1-amine]",≤ 100
14,"CN1CCN(c2ccc(-c3n[nH]c4ccc(-c5cccc6c5CCC6NCc5ccccc5)nc34)cc2)CC1 (stereo not drawn) [Example 50, N-Benzyl-4-(3-(4-(4-methylpiperazin-1-yl)phenyl)-1H-pyrazolo[4,3-b]pyridin-5-yl)-2,3-dihydro-1H-inden-1-amine]",≤ 100
15,"CN1CCC(NC(=O)c2ccc(-c3n[nH]c4ccc(-c5ccccc5F)nc34)cc2)CC1 [Example 55, 4-(5-(2-Fluorophenyl)-1H-pyrazolo[4,3-b]pyridin-3-yl)-N-(1-methylpiperidin-4-yl)benzamide]",≤ 100
16,"CNCc1cc(F)c(-c2ccc3[nH]nc(-c4ccc(N5CCN(C)CC5)cc4)c3n2)c(F)c1 [Example 61, 1-(3,5-Difluoro-4-(3-(4-(4-methylpiperazin-1-yl)phenyl)-1H-pyrazolo[4,3-b]pyridin-5-yl)phenyl)-N-methylmethanamine]",≤ 100
17,Cc1cccc(F)c1-c1nc2c(-c3ccc(N4CCN(C)CC4)nc3)n[nH]c2cc1C#N [Example 62],≤ 100

# Second part, the compound after the results:
row,Ki [nM],SMILES
1,≤ 100,Cc1ccccc1-c1ccc2[nH]nc(-c3ccc(N4CCN(C)CC4)cc3)c2n1 [Example 3]
2,≤ 100,"CN1CCN(c2ccc(-c3n[nH]c4ccc(-c5ccccc5F)nc34)cc2)CC1 [Example 4, 5-(2-Fluorophenyl)-3-(4-(4-methylpiperazin-1-yl)phenyl)-1H-pyrazolo[4,3-b]pyridine]"
3,≤ 100,"CN1CCN(c2ccc(-c3n[nH]c4ccc(-c5ccccc5C(F)(F)F)nc34)cc2)CC1 [Example 5, 3-(4-(4-Methylpiperazin-1-yl)phenyl)-5-(2-(trifluoromethyl)phenyl)-1H-pyrazolo[4,3-b]pyridine]"
4,≤ 100,"Cc1c(N)cccc1-c1ccc2[nH]nc(-c3ccc(N4CCN(C)CC4)cc3)c2n1 [Example 6, 2-Methyl-3-(3-(4-(4-methylpiperazin-1-yl)phenyl)-1H-pyrazolo[4,3-b]pyridin-5-yl)aniline]"
5,≤ 100,"Cc1cccc(F)c1-c1ccc2[nH]nc(-c3ccc(N4CCN(C)CC4)cc3)c2n1 [Example 7, 5-(2-Fluoro-6-methylphenyl)-3-(4-(4-methylpiperazin-1-yl)phenyl)-1H-pyrazolo[4,3-b]pyridine]"
6,≤ 100,"COc1cccc(F)c1-c1ccc2[nH]nc(-c3ccc(N4CCN(C)CC4)cc3)c2n1 [Example 8, 5-(2-Fluoro-6-methoxyphenyl)-3-(4-(4-methylpiperazin-1-yl)phenyl)-1H-pyrazolo[4,3-b]pyridine]"
7,≤ 100,"CN1CCN(c2ccc(-c3n[nH]c4ccc(-c5cccc(F)c5F)nc34)cc2)CC1 [Example 9, 5-(2,3-Difluorophenyl)-3-(4-(4-methylpiperazin-1-yl)phenyl)-1H-pyrazolo[4,3-b]pyridine]"
8,≤ 100,"COc1ccc(F)c(F)c1-c1ccc2[nH]nc(-c3ccc(N4CCN(C)CC4)cc3)c2n1 [Example 10, 5-(2,3-Difluoro-6-methoxyphenyl)-3-(4-(4-methylpiperazin-1-yl)phenyl)-1H-pyrazolo[4,3-b]pyridine]"
9,≤ 100,"CN1CCN(c2ccc(-c3n[nH]c4ccc(-c5c(F)cccc5CO)nc34)cc2)CC1 [Example 11, (3-Fluoro-2-(3-(4-(4-methylpiperazin-1-yl)phenyl)-1H-pyrazolo[4,3-b]pyridin-5-yl)phenyl)methanol]"
10,≤ 100,"CCOC(=O)c1cccc(-c2ccc3[nH]nc(-c4ccc(N5CCN(C)CC5)cc4)c3n2)c1F [Example 12, Ethyl 2-fluoro-3-(3-(4-(4-methylpiperazin-1-yl)phenyl)-1H-pyrazolo[4,3-b]pyridin-5-yl)benzoate]"
11,≤ 100,"CN1CCN(c2ccc(-c3n[nH]c4ccc(-c5cccc(NS(C)(=O)=O)c5F)nc34)cc2)CC1 [Example 13, N-(2-Fluoro-3-(3-(4-(4-methylpiperazin-1-yl)phenyl)-1H-pyrazolo[4,3-b]pyridin-5-yl)phenyl)methanesulfonamide]"
12,≤ 100,CN1CCN(c2ccc(-c3n[nH]c4ccc(-c5ccccc5C#N)nc34)cc2)CC1 [Example 19]
13,≤ 100,"CN1CCN(c2ccc(-c3n[nH]c4ccc(-c5cccc6[nH]ncc56)nc34)cc2)CC1 [Example 23, 5-(1H-Indazol-4-yl)-3-(4-(4-methylpiperazin-1-yl)phenyl)-1H-pyrazolo[4,3-b]pyridine]"
14,≤ 100,"CN1CCN(c2ccc(-c3n[nH]c4ccc(-c5cccnc5)nc34)cc2)CC1 [Example 24, 3-(4-(4-Methylpiperazin-1-yl)phenyl)-5-(pyridin-3-yl)-1H-pyrazolo[4,3-b]pyridine]"
15,≤ 100,"CN1CCN(c2ccc(-c3n[nH]c4ccc(-c5cncnc5)nc34)cc2)CC1 [Example 26, 3-(4-(4-Methylpiperazin-1-yl)phenyl)-5-(pyrimidin-5-yl)-1H-pyrazolo[4,3-b]pyridine]"
16,≤ 100,"CN1CCN(c2ccc(-c3n[nH]c4ccc(-c5cnc6c(c5)CC(=O)N6)nc34)cc2)CC1 [Example 27, 5-(3-(4-(4-Methylpiperazin-1-yl)phenyl)-1H-pyrazolo[4,3-b]pyridin-5-yl)-1H-pyrrolo[2,3-b]pyridin-2(3H)-one]"
17,≤ 100,"CN1CCN(c2ccc(-c3n[nH]c4ccc(-c5cnc6cnn(C)c6c5)nc34)cc2)CC1 [Example 28, 1′-Methyl-3-(4-(4-methylpiperazin-1-yl)phenyl)-1H,1′H-5,6′-bipyrazolo[4,3-b]pyridine]"
18,≤ 100,"CN1CCN(c2ccc(-c3n[nH]c4ccc(-c5cncc(-c6ncco6)c5)nc34)cc2)CC1 [Example 29, 2-(5-(3-(4-(4-Methylpiperazin-1-yl)phenyl)-1H-pyrazolo[4,3-b]pyridin-5-yl)pyridin-3-yl)oxazole]"
19,≤ 100,"CN1CCN(c2ccc(-c3n[nH]c4ccc(-c5cnc6c(c5)ncn6C)nc34)cc2)CC1 [Example 31, 5-(3-Methyl-3H-imidazo[4,5-b]pyridin-6-yl)-3-(4-(4-methylpiperazin-1-yl)phenyl)-1H-pyrazolo[4,3-b]pyridine]"
